Test results: ChEMBL document CHEMBL1150904, “Cytotoxic isoflavans from Eysenhardtia polystachya” (1998)
Values after ≈ are worked out from the molar mass of the structure shown.

What was measured:
KB = assay: Cytotoxicity against human KB cells after 72 hrs; assay type: functional; settings: read-out: ED50 (the source's name)
Spodoptera frugiperda = assay: Insecticidal activity against Spodoptera frugiperda; assay type: functional

Structure (SMILES)	EC50 (KB) [µg/mL]	LC50 (Spodoptera frugiperda) [ng/cm2]
COc1cc(OC)c(-c2coc3cc(O)ccc3c2=O)cc1OC	> 4	–
COc1cc([C@H]2COc3c(ccc(O)c3OC)C2)c(OC)c(OC)c1OC	3.8 (≈ 10.1 µM)	>1000
COc1cc([C@H]2COc3c(ccc(O)c3OC)C2)c(OC)c(O)c1OC	3 (≈ 8.28 µM)	>1000
COc1ccc2c(c1OC)OC[C@H]1c3cc4c(cc3O[C@@H]21)OCO4	> 4	–
COc1cc2c(cc1-c1coc3cc(O)ccc3c1=O)OCO2 [CUNEATIN]	> 4	–
COc1ccc(C2COc3c(ccc(O)c3OC)C2)c(O)c1OC (stereo not given) [ISODUARTIN]	2.63 (≈ 7.91 µM)	>1000
CC[C@H](/C=C/[C@@H](C)[C@H]1CC[C@H]2[C@@H]3CC=C4C[C@@H](O)CC[C@]4(C)[C@H]3CC[C@]12C)C(C)C [STIGMASTEROL]	> 4	–
